In patent US10900018B2, “Means and methods for generation of breast stem cells” (Helmholtz Zentrum München—Deutsches Forschungszentrum Für …, priority 2015, dated 2021):

How the values were obtained:
Format in all cases: cell-based, human
[1] = tested on: HMEC; test: Inhibition of contraction: alveologenesis after detachment of attached collagen gels; conditions: donor M10
Description: (§1) For contraction assays, 5×10^3 HMEC were plated or 3×10^3 sorted B+ cells/400 μl collagen gel and 1×10^4 LP cells/400 μl collagen gel. At day 12 of culture, 2 ng/μl TGF-β1 (R&D Systems) was added to the culture medium once. For inhibition of contraction experiments, 3×10^3 HMEC (Donor M10) were plated/400 μl collagen gel, and the gels were left attached to the culture dish. At day 13 of culture, when structures had formed, gels were detached and 10 μM Blebbistatin or 5 μM Y-27632 were added to the culture medium every 24 hours. To determine the number of cells per gel, collagen gels were minced using a scalpel, digested with 300 U/ml collagenase I (Sigma) for 1 hour at 37° C., followed by 0.15% trypsin (5 minutes at 37° C.), and filtered to obtain single cells. Cells were counted with a hemocytometer. Images of structures in the gels were acquired on a Leica DM IL LED microscope equipped with a HiPlan 10×/0.22 PH1 objective and images of whole gels were taken with a Zeiss SteREO Lumar.V12 microscope with a NeoLumar S 0.8×objective (6.4× Zoom).

[2] = tested on: HMEC; test: ELDA of branched structure-forming units in floating collagen gels after 2D-culture; conditions: 2D-culture in presence of 10 μM Forskolin, donor M4
Excerpt: Mammary gland tissue was obtained from healthy women undergoing reduction mammoplasty at the Nymphenburg Clinic for Plastic and Aesthetic Surgery (Christian Gabka), in accordance with the regulations of the ethics committee of the Ludwig-Maximilian University Munich (proposal 397-12). Single cell suspensions of primary HMEC were generated as previously described with minor modifications ([…] et al., 2005). Briefly, the ductal tree was minced into about 1.0 mm^3 pieces and digested in collagenase I and hyaluronidase (both Sigma), and subsequently with Trypsin-EDTA and dispase (Life Technologies), and then cryopreserved. Before further processing, cells were filtered through a 40 μm strainer, to remove residual tissue fragments and cell aggregates. Cells were seeded in 2D on polystyrene cell culture plates or in collagen I gels in Mammary Epithelial Cell Growth Medium (MECGM, PromoCell) supplemented with 1% Pen/Strep (Invitrogen), 0.5% FCS (Pan Biotech), 3 μM Y-27632 (Biomol) and 10 μM Forskolin (Biomol), unless stated otherwise. After an establishment period of 5 days, medium was changed to MECGM supplemented with 1% Pen/Strep and 10 μM Forskolin, unless stated otherwise. […] Gels with at least one branched structure were counted as positive. […] Limiting dilutions were analyzed using a webtool, as described previously (Hu and Smyth, 2009).

[3] = tested on: freshly isolated HMEC; test: Structure formation by freshly isolated HMEC in floating collagen I gels
Excerpt: Mammary gland tissue was obtained from healthy women undergoing reduction mammoplasty at the Nymphenburg Clinic for Plastic and Aesthetic Surgery (Christian Gabka), in accordance with the regulations of the ethics committee of the Ludwig-Maximilian University Munich (proposal 397-12). Single cell suspensions of primary HMEC were generated as previously described with minor modifications (Stingl et al., 2005). Briefly, the ductal tree was minced into about 1.0 mm^3 pieces and digested in collagenase I and hyaluronidase (both Sigma), and subsequently with Trypsin-EDTA and dispase (Life Technologies), and then cryopreserved. Before further processing, cells were filtered through a 40 μm strainer, to remove residual tissue fragments and cell aggregates. Cells were seeded in 2D on polystyrene cell culture plates or in collagen I gels in Mammary Epithelial Cell Growth Medium (MECGM, PromoCell) supplemented with 1% Pen/Strep (Invitrogen), 0.5% FCS (Pan Biotech), 3 μM Y-27632 (Biomol) and 10 μM Forskolin (Biomol), unless stated otherwise. After an establishment period of 5 days, medium was changed to MECGM supplemented with 1% Pen/Strep and 10 μM Forskolin, unless stated otherwise.
Single cell suspensions containing the desired amount of cells were quickly mixed with neutralizing solution, and acidified rat tail collagen I (Corning) was added, resulting in a final collagen I concentration of 1.3 mg/ml. Next, the gel mixture was plated into siloxane-coated 24-well or 48-well plates. After polymerization of the gel, medium with supplements was carefully added and gels were detached from the well. Attached and attached-to-floating gels were prepared in uncoated 24-well plates. Cells were maintained for 8 up to 20 days (shorter periods for quantification and longer periods for long term treatments).
Mammary gland tissue was obtained from healthy women undergoing reduction mammoplasty at the Nymphenburg Clinic for Plastic and Aesthetic Surgery (Prof. Christian Gabka), in accordance with the regulations of the ethics committee of the Ludwig-Maximilian University Munich (proposal 397-12). Single cell suspensions of primary HMEC were generated as previously described with minor modifications (Stingl et al., 2005). Briefly, the ductal tree was minced into about 1 mm^3 pieces and enzymatically digested in tissue digestion buffer (F12:DME/HEPES, 1.5% w/v BSA) supplemented with 1 μg/ml insulin, 300 U/ml collagenase and 100 U/ml hyaluronidase (all Sigma) at 37° C. over night. The stromal compartment was optionally separated by differential centrifugation and cryopreserved. The pellet enriched for epithelial cells was further dissociated in 0.15% Trypsin-EDTA and 5 mg/ml dispase (Life Technologies) and then cryopreserved. Before further processing, cells were filtered through a 40 μm strainer, to remove residual tissue fragments and cell aggregates. Freshly isolated primary HMEC were seeded in Mammary Epithelial Cell Growth Medium (MECGM, PromoCell) supplemented with 1% Pen/Strep (Invitrogen), 0.5% FCS (Pan Biotech), 3 μM Y-27632 (Biomol) and 10 μM Forskolin (Biomol), unless otherwise stated. After an establishment period of 5 days, medium was changed to MECGM supplemented 1% Pen/Strep and 10 μM Forskolin, unless otherwise stated. Upon establishment, medium was replaced every 3-4 days. Cells were maintained in 5% CO2, 3% O2 for the whole culture period. […]

[4] = tested on: B+ cells (CD10+/CD49fhi/EpCAM−); test: Contraction of floating collagen I gels containing B+ cell derived TDLU-like structures
Description: as §1, with “At day 12 of culture, 2 ng/μl TGF-β1 (R&D Systems) was added to the culture medium once.” left out
(§2) Size of gels, structures, and cells was determined with the ImageJ tool for measurement of areas. Quantification of structures was carried out using the ImageJ cell counter. Structures with at least two branching points were considered as branched. For branching point analysis, branches were traced, one main branch was set, and one branching point was counted for each side-branch.

[5] = tested on: LP cells (CD49f+/EpCAM+); test: Contraction of floating collagen I gels containing LP-derived spheres; conditions: 2.0 ng/ml TGF-β1 once
Description: as §1, with “At day 12 of culture, 2 ng/μl TGF-β1 (R&D Systems) was added to the culture medium once.” left out
as §2

[6] = 10 μM Forskolin, continuous treatment, donor M8

## Cc1ccc2c(c1)C(=O)C1(O)CCN(c3ccccc3)C1=N2 (stereo not shown) [Blebbistatin]
[1]; 10 μM Blebbistatin every 24 hours from detachment at day 13
  acquisition of alveolar morphology after gel detachment: prevented

## C=C[C@@]1(C)CC(=O)[C@]2(O)[C@@]3(C)[C@@H](O)CCC(C)(C)[C@@H]3[C@H](O)[C@H](OC(C)=O)[C@@]2(C)O1 [Forskolin]
[2]; passage 1
  cells giving rise to a TDLU-like structure (B-SFU): 1/290
[2]; passage 3
  cells giving rise to a TDLU-like structure (B-SFU): 1/250
[3]; [6]
  increase of formation of TDLU-like branched structures: approximately 12 fold
  increase of formation of non-branched structures (mostly spheres): approximately 1.5 fold
  increase of overall branched structure-forming potential: 3 fold

## C[C@@H](N)[C@H]1CC[C@H](C(=O)Nc2ccncc2)CC1 [Y-27632]
[3]; 3 μM Y-27632, added upon plating, removed after 5 days, floating collagen I gels, day 14, donor M8
  increase of branched structure formation: approximately 5 fold
[3]; continuous Y-27632 after 5 days of initial culture, data not shown
  effect of continuous treatment on morphogenesis: dissolution of cell-cell adhesion
[1]; 5 μM Y-27632 every 24 hours from detachment at day 13
  acquisition of alveolar morphology after gel detachment: prevented

## TGF-β1: recombinant TGF-β1, morphogen that promotes contractility (R&D Systems)
[4]; TGF-β1-treated B+ derived structures, donor M8, phalloidin F-actin staining
  average cell size in treated structures versus controls: significantly smaller
[4]; one-time treatment with 2.0 ng/ml recombinant TGF-β1 at day 12 of culture, gel size 2 days later, donors M3, M10
  increase of contraction of the gels: approximately 2 fold
[5]; LP-derived spheres, donor M10
  effect on size of gels: did not have an effect
[5]; M3 luminal cells
  effect on size of gels: slight contraction
